Reference: US4607031A, “Novel ethyl benzylphosphinate derivatives, process for production thereof, and their use as calcium antagonist” (priority 1984, dated 1986)

target: T1, taenia preparation isolated from caecum (Cavia porcellus); test: Calcium antagonistic activity (isolated taenia preparation from caecum, Ca2+ concentration-response in K+-rich solution); assay type: cell-based; details: guinea pig taenia caeci; Ca2+-free, K+-rich Ringer-Lock solution, 30±1° C.; CaCl2 cumulatively added; read-out: Calcium antagonistic activity (pA2 values, mean ± standard error) (converted)
T1 construct: The taenia preparation in a length of about 2 cm was isolated from caecum; from tissue; host or cells: guinea pig taenia caeci (isolated smooth muscle strip)
Protocol: Male guinea pigs, weighing 405-500 g, were stunned and bled. The taenia preparation in a length of about 2 cm was isolated from caecum and suspended in an organ bath filled with Ca^2+ -free Ringer-Lock solution (composition, mM: NaCl 154, KCl 5.6, NaHCO3 2.3, glucose 5.5). The bathing solution was maintained at 30±1° C. and bubbled with air. The contractile response was recorded using an isotonic transducer (TD-112S made by Nihon Kohden Co., Ltd.) under a load of 0.5 g.
After sufficient incubation to remove Ca^2+, the bathing solution was replaced by Ca^2+ -free, K^+ -rich Ringer-Lock solution (composition, mM: NaCl 59.6, KCl 100, NaHCO3 2.3, glucose 5.5). An aqueous solution of CaCl2 ([…]) was cumulatively added to the bathing solution every 10 minutes, and a concentration-response curve for Ca^2+ was obtained. After washing out Ca^2+ the same procedure as above was carried out in the presence of each of the test compounds, and the pA2 value of the calcium antagonistic activity was calculated from the difference between the concentration-response curves obtained in the absence and presence of the test compound.
Each of the test compounds was dissolved in 5% ethanol and added to the bathing solution (the final concentration of ethanol was 0.05%).

T1 sequence (O35505 whole entry): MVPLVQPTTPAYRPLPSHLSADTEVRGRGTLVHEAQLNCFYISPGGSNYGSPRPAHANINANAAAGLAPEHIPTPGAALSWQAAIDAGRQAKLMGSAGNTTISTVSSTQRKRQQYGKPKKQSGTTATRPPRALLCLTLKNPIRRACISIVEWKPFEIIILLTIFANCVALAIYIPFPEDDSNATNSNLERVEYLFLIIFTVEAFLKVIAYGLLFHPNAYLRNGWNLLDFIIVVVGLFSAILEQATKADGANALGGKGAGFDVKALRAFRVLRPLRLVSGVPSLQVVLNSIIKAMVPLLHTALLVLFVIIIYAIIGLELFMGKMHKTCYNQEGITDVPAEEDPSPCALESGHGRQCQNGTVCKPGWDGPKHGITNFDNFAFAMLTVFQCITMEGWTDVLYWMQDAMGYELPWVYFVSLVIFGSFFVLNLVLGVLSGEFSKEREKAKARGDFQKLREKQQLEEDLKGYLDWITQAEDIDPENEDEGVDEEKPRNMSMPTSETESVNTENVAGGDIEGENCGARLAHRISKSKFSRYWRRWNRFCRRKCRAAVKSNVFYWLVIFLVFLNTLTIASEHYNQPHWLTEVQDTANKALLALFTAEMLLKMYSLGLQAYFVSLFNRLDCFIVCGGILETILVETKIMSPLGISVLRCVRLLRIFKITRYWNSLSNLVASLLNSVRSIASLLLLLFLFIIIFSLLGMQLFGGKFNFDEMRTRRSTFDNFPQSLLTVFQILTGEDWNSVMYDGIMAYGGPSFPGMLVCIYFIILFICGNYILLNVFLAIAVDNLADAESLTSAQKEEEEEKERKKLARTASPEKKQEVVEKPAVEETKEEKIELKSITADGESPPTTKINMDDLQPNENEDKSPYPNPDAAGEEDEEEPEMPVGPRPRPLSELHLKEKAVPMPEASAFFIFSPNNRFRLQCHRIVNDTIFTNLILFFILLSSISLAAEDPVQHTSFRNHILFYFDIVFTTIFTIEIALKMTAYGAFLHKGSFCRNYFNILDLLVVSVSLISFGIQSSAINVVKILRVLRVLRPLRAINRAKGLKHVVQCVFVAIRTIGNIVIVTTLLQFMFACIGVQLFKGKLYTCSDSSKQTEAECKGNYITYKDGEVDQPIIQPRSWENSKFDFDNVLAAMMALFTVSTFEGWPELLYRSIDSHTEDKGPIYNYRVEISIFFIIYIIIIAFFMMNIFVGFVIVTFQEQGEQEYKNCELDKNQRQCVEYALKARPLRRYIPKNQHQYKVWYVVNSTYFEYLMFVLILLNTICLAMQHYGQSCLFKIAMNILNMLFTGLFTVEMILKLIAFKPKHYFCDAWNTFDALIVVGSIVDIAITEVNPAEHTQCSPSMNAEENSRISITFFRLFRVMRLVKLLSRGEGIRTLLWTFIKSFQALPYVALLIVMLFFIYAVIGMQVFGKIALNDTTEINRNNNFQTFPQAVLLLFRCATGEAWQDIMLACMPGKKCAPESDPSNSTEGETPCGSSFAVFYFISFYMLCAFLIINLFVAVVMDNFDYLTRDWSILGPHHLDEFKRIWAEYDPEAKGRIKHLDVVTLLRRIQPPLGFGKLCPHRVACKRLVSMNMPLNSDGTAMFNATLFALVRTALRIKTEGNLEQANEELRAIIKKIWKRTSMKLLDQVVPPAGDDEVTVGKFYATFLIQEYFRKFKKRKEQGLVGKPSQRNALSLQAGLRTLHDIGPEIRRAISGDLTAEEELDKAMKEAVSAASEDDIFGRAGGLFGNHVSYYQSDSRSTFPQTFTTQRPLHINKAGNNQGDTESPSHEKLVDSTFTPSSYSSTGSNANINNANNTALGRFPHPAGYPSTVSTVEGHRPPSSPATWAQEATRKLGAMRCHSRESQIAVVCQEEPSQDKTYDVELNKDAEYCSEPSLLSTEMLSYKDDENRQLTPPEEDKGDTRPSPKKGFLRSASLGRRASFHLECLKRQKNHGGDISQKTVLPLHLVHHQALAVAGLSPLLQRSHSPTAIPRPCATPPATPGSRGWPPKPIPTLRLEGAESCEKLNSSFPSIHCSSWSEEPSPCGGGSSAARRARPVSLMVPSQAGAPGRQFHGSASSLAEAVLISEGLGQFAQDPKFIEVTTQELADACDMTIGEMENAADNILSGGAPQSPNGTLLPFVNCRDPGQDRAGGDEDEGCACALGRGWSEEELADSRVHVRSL

For CCOP(=O)(Cc1ccc(-c2nc3ccccc3s2)cc1)N1CCCC1=O (centres unmarked) [Compound 100, Ethyl 4-(benzothiazol-2-yl)benzyl-(2-oxopyrrolidino)phosphinate], which Kb is on record?
The Kb was 29.5 nM.

Which Kb does the source give for CCOP(=O)(Cc1ccc(-c2nc3ccccc3s2)cc1)N1CCCCC1=O (centres unmarked) [Compound 101, Ethyl 4-(benzothiazol-2-yl)benzyl-(2-oxopiperidino)phosphinate] here?
The Kb was 35.5 nM.

With CCOP(=O)(Cc1ccc(-c2nc3ccccc3s2)cc1)N1CCCCCC1=O (centres unmarked) [Compound 102, Ethyl 4-(benzothiazol-2-yl)benzyl-(2-oxohomopiperidino)phosphinate] as the molecule, how does the Kb read?
The Kb was 34.7 nM.

Which Kb does the source give for CCOP(=O)(Cc1ccc(-c2nc3cc(F)ccc3s2)cc1)N1CCCC1=O (centres unmarked) [Compound 103, Ethyl 4-(5-fluorobenzothiazol-2-yl)benzyl(2-oxopyrrolidino)phosphinate] here?
Its Kb is 18.6 nM.

For CCOP(=O)(Cc1ccc(-c2nc3cc(F)ccc3s2)cc1)N1CCCCC1=O (centres unmarked) [Compound 104, Ethyl 4-(5-fluorobenzothiazol-2-yl)benzyl(2-oxopiperidino)phosphinate], which Kb is on record?
The Kb was 20.9 nM.

For CCOP(=O)(Cc1ccc(-c2nc3cc(F)ccc3s2)cc1)N1CCCCCC1=O (centres unmarked) [Compound 105, Ethyl 4-(5-fluorobenzothiazol-2-yl)benzyl(2-oxohomopiperidino)phosphinate], which Kb is on record?
Its Kb is 18.6 nM.

Which Kb does the source give for CCOP(=O)(Cc1ccc(-c2nc3cc(F)ccc3s2)cc1)N1CCOC1=O (centres unmarked) [Compound 109, Ethyl 4-(5-fluorobenzothiazol-2-yl)benzyl(2-oxo-1,3-oxazolidino)phosphinate] here?
Its Kb is 20.4 nM.

With CCOP(=O)(Cc1ccc(-c2nc3ccccc3s2)cc1)OCC [Compound A, diethyl 4-(benzothiazol-2-yl)benzylphosphonate, reference compound] as the molecule, how does the Kb read?
Its Kb is 61.7 nM.

test system: Mongrel dogs; test: Coronary vasodilating activity and hypotensive activity in anesthetized dogs; assay type: in vivo, dog; details: Canis lupus familiaris, iv, read-out: Mean systemic blood pressure lowering activity MBP-DD15
Protocol: Coronary vasodilating activity was examined by measuring the amount of coronary blood flow as an index. Mongrel dogs weighing 10 to 19 kg were anesthetized by intravenously injecting sodium pentobarbital (30 mg/kg) and thoracotomized at the 5th left intercostal space under artificial ventilation. After incision of the pericardiac membrane, a flow probe was placed at the circumflex banch of the left coronary artery and led to an electromagnetic flow meter (MFV-2100 made by Nihon Kohden Co., Ltd.). The systemic blood pressure of the animals was measured by a pressure transducer (MPU-0.5 made by Nihon Kohden Co., Ltd.) connected to the cannulated left femoral artery. The coronary blood flow and the systemic blood pressure were recorded on a polygraph (RM-85 made by Nihon Kohden Co., Ltd.). Each of the test compounds was dissolved in ethanol/saline solution (1/1, V/V) and injected into the femoral vein.
Each of the test compounds was administered in a dose of 0.03 to 0.3 mg/kg, and doses which increase the coronary blood flow by 75% (CBF-ID75) and decrease the mean systemic blood pressure by 15% (MDP-DD15) were calculated from the regression lines.

Which ED15 does the source give for CCOP(=O)(Cc1ccc(-c2nc3ccccc3s2)cc1)N1CCCC1=O (centres unmarked) [Compound 100, Ethyl 4-(benzothiazol-2-yl)benzyl-(2-oxopyrrolidino)phosphinate] here?
Its ED15 is 0.0387 mg/kg.

For CCOP(=O)(Cc1ccc(-c2nc3ccccc3s2)cc1)N1CCCCC1=O (centres unmarked) [Compound 101, Ethyl 4-(benzothiazol-2-yl)benzyl-(2-oxopiperidino)phosphinate], which ED15 is on record?
Its ED15 is 0.0582 mg/kg.

For CCOP(=O)(Cc1ccc(-c2nc3ccccc3s2)cc1)N1CCCCCC1=O (centres unmarked) [Compound 102, Ethyl 4-(benzothiazol-2-yl)benzyl-(2-oxohomopiperidino)phosphinate], which ED15 is on record?
Its ED15 is 0.054 mg/kg.

Which ED15 does the source give for CCOP(=O)(Cc1ccc(-c2nc3cc(F)ccc3s2)cc1)N1CCCC1=O (centres unmarked) [Compound 103, Ethyl 4-(5-fluorobenzothiazol-2-yl)benzyl(2-oxopyrrolidino)phosphinate] here?
Its ED15 is 0.0901 mg/kg.

With CCOP(=O)(Cc1ccc(-c2nc3cc(F)ccc3s2)cc1)N1CCCCC1=O (centres unmarked) [Compound 104, Ethyl 4-(5-fluorobenzothiazol-2-yl)benzyl(2-oxopiperidino)phosphinate] as the molecule, how does the ED15 read?
Its ED15 is 0.0629 mg/kg.

For CCOP(=O)(Cc1ccc(-c2nc3cc(F)ccc3s2)cc1)N1CCCCCC1=O (centres unmarked) [Compound 105, Ethyl 4-(5-fluorobenzothiazol-2-yl)benzyl(2-oxohomopiperidino)phosphinate], which ED15 is on record?
The ED15 was 0.0712 mg/kg.

For CCOP(=O)(Cc1ccc(-c2nc3cc(F)ccc3s2)cc1)N1CCOC1=O (centres unmarked) [Compound 109, Ethyl 4-(5-fluorobenzothiazol-2-yl)benzyl(2-oxo-1,3-oxazolidino)phosphinate], which ED15 is on record?
Its ED15 is 0.0748 mg/kg.

For CCOP(=O)(Cc1ccc(-c2nc3ccccc3s2)cc1)OCC [Compound A, diethyl 4-(benzothiazol-2-yl)benzylphosphonate, reference compound], which ED15 is on record?
The ED15 was 0.158 mg/kg.

same assay, conditions: Canis lupus familiaris, iv; dose which increases coronary blood flow by 75%; anesthetized mongrel dogs; injected into femoral vein, 0.03 to 0.3 mg/kg; read-out: Coronary blood flow increasing activity CBF-ID75

With CCOP(=O)(Cc1ccc(-c2nc3ccccc3s2)cc1)N1CCCC1=O (centres unmarked) [Compound 100, Ethyl 4-(benzothiazol-2-yl)benzyl-(2-oxopyrrolidino)phosphinate] as the molecule, how does the ED75 read?
Its ED75 is 0.044 mg/kg.

For CCOP(=O)(Cc1ccc(-c2nc3ccccc3s2)cc1)N1CCCCC1=O (centres unmarked) [Compound 101, Ethyl 4-(benzothiazol-2-yl)benzyl-(2-oxopiperidino)phosphinate], which ED75 is on record?
Its ED75 is 0.06 mg/kg.

With CCOP(=O)(Cc1ccc(-c2nc3ccccc3s2)cc1)N1CCCCCC1=O (centres unmarked) [Compound 102, Ethyl 4-(benzothiazol-2-yl)benzyl-(2-oxohomopiperidino)phosphinate] as the molecule, how does the ED75 read?
Its ED75 is 0.0573 mg/kg.

With CCOP(=O)(Cc1ccc(-c2nc3cc(F)ccc3s2)cc1)N1CCCC1=O (centres unmarked) [Compound 103, Ethyl 4-(5-fluorobenzothiazol-2-yl)benzyl(2-oxopyrrolidino)phosphinate] as the molecule, how does the ED75 read?
Its ED75 is 0.0644 mg/kg.

For CCOP(=O)(Cc1ccc(-c2nc3cc(F)ccc3s2)cc1)N1CCCCC1=O (centres unmarked) [Compound 104, Ethyl 4-(5-fluorobenzothiazol-2-yl)benzyl(2-oxopiperidino)phosphinate], which ED75 is on record?
Its ED75 is 0.0647 mg/kg.

For CCOP(=O)(Cc1ccc(-c2nc3cc(F)ccc3s2)cc1)N1CCCCCC1=O (centres unmarked) [Compound 105, Ethyl 4-(5-fluorobenzothiazol-2-yl)benzyl(2-oxohomopiperidino)phosphinate], which ED75 is on record?
The ED75 was 0.0583 mg/kg.

With CCOP(=O)(Cc1ccc(-c2nc3cc(F)ccc3s2)cc1)N1CCOC1=O (centres unmarked) [Compound 109, Ethyl 4-(5-fluorobenzothiazol-2-yl)benzyl(2-oxo-1,3-oxazolidino)phosphinate] as the molecule, how does the ED75 read?
The ED75 was 0.0615 mg/kg.

With CCOP(=O)(Cc1ccc(-c2nc3ccccc3s2)cc1)OCC [Compound A, diethyl 4-(benzothiazol-2-yl)benzylphosphonate, reference compound] as the molecule, how does the ED75 read?
Its ED75 is 0.116 mg/kg.

test system: not listed separately; test: Acute toxicity, oral; details: mouse, in vivo, ddY male mice, suspended in 0.5% carboxymethyl cellulose, 7 days

For CCOP(=O)(Cc1ccc(-c2nc3ccccc3s2)cc1)N1CCCC1=O (centres unmarked) [Compound 100, Ethyl 4-(benzothiazol-2-yl)benzyl-(2-oxopyrrolidino)phosphinate], which LD50 at 168 h is on record?
Its LD50 at 168 h is > 1000 mg/kg.

For CCOP(=O)(Cc1ccc(-c2nc3ccccc3s2)cc1)N1CCCCC1=O (centres unmarked) [Compound 101, Ethyl 4-(benzothiazol-2-yl)benzyl-(2-oxopiperidino)phosphinate], which LD50 at 168 h is on record?
Its LD50 at 168 h is > 1000 mg/kg.

With CCOP(=O)(Cc1ccc(-c2nc3ccccc3s2)cc1)N1CCCCCC1=O (centres unmarked) [Compound 102, Ethyl 4-(benzothiazol-2-yl)benzyl-(2-oxohomopiperidino)phosphinate] as the molecule, how does the LD50 at 168 h read?
The LD50 at 168 h was > 1000 mg/kg.

For CCOP(=O)(Cc1ccc(-c2nc3cc(F)ccc3s2)cc1)N1CCCC1=O (centres unmarked) [Compound 103, Ethyl 4-(5-fluorobenzothiazol-2-yl)benzyl(2-oxopyrrolidino)phosphinate], which LD50 at 168 h is on record?
Its LD50 at 168 h is > 1000 mg/kg.

For CCOP(=O)(Cc1ccc(-c2nc3cc(F)ccc3s2)cc1)N1CCCCC1=O (centres unmarked) [Compound 104, Ethyl 4-(5-fluorobenzothiazol-2-yl)benzyl(2-oxopiperidino)phosphinate], which LD50 at 168 h is on record?
The LD50 at 168 h was > 1000 mg/kg.

For CCOP(=O)(Cc1ccc(-c2nc3cc(F)ccc3s2)cc1)N1CCCCCC1=O (centres unmarked) [Compound 105, Ethyl 4-(5-fluorobenzothiazol-2-yl)benzyl(2-oxohomopiperidino)phosphinate], which LD50 at 168 h is on record?
Its LD50 at 168 h is > 1000 mg/kg.

Which LD50 at 168 h does the source give for CCOP(=O)(Cc1ccc(-c2nc3cc(F)ccc3s2)cc1)N1CCOC1=O (centres unmarked) [Compound 109, Ethyl 4-(5-fluorobenzothiazol-2-yl)benzyl(2-oxo-1,3-oxazolidino)phosphinate] here?
The LD50 at 168 h was > 1000 mg/kg.

Which LD50 at 168 h does the source give for CCOP(=O)(Cc1ccc(-c2nc3ccccc3s2)cc1)OCC [Compound A, diethyl 4-(benzothiazol-2-yl)benzylphosphonate, reference compound] here?
The LD50 at 168 h was > 1000 mg/kg.
